Measured values published in US7396837B2, “Antitumoral analogs of lamellarins” (Pharma Mar, S.A.U., priority 2002, dated 2008).

How the values were obtained:
Type in all cases: cell-based
K-562 = experiment: SRB colorimetric cell growth inhibition assay, K-562; settings: Homo sapiens, K562, K-562; for GI50: GI=growth inhibition, read-out: GI50 K-562; for CC50: cell killing (cytotoxic effect), read-out: LC50 K-562; for IC (TGI): total growth inhibition (cytostatic effect), read-out: TGI K-562
Text: (§1) The finality of these assays is to interrupt the growth of an “in vitro” tumor cell culture by means a continued exhibition of the cells to the sample to be testing.
(§2) A colorimetric type of assay, using sulforhodamine B (SRB) reaction has been adapted for a quantitative measurement of cell growth and viability (following the technique described by P. A. Skehan, et al., J. Natl. Cancer Inst. 1990, 82, 1107-1112).
(§3) This form of assay employs 96 well cell culture microplates of 9 mm diameter (T. Mosmann et al., J. of Immunological Methods 1983, 65, 55-63; G. T. Faircloth et al., J. of Tissue and Culture Methods 1988, 11, 201-205).
(§4) Most of the cell lines are obtained from American Type Culture Collection (ATCC) derived from different human cancer types.
(§5) The values for mean +/− SD of data from triplicate wells are calculated. Some parameters for cellular responses can be calculated: GI=growth inhibition, TGI=total growth inhibition (cytostatic effect) and LC=cell killing (cytotoxic effect).

A-549 = experiment: SRB colorimetric cell growth inhibition assay, A-549; settings: Homo sapiens, A549, A-549; for GI50: GI=growth inhibition, read-out: GI50 A-549; for CC50: cell killing (cytotoxic effect), read-out: LC50 A-549; for IC (TGI): total growth inhibition (cytostatic effect), read-out: TGI A-549
Text: as §1, §2, §3, §4, §5

HT-29 = experiment: SRB colorimetric cell growth inhibition assay, HT-29; settings: Homo sapiens, HT-29, HT-29; for GI50: GI=growth inhibition, read-out: GI50 HT-29; for CC50: cell killing (cytotoxic effect), read-out: LC50 HT-29; for IC (TGI): total growth inhibition (cytostatic effect), read-out: TGI HT-29
Text: as §1, §2, §3, §4, §5

LoVo = experiment: SRB colorimetric cell growth inhibition assay, LoVo; settings: Homo sapiens, LoVo; for GI50: GI=growth inhibition, read-out: GI50 LOVO; for CC50: cell killing (cytotoxic effect), read-out: LC50 LOVO; for IC (TGI): total growth inhibition (cytostatic effect), read-out: TGI LOVO
Text: as §1, §2, §3, §4, §5

LoVo-Dox = experiment: SRB colorimetric cell growth inhibition assay, LoVo-Dox (MDR); settings: Homo sapiens, LOVO-DOX; for GI50: GI=growth inhibition, read-out: GI50 LOVO-DOX; for CC50: cell killing (cytotoxic effect), read-out: LC50 LOVO-DOX; for IC (TGI): total growth inhibition (cytostatic effect), read-out: TGI LOVO-DOX
Text: as §1, §2, §3, §4, §5

DU-145 = experiment: SRB colorimetric cell growth inhibition assay, DU-145; settings: Homo sapiens, DU-145, DU-145; for GI50: GI=growth inhibition, read-out: GI50 DU-145; for CC50: cell killing (cytotoxic effect), read-out: LC50 DU-145; for IC (TGI): total growth inhibition (cytostatic effect), read-out: TGI DU-145
Text: as §1, §2, §3, §4, §5

LNCaP = experiment: SRB colorimetric cell growth inhibition assay, LNCaP; settings: Homo sapiens, LNCaP, LN-caP; for GI50: GI=growth inhibition, read-out: GI50 LN-caP; for CC50: cell killing (cytotoxic effect), read-out: LC50 LN-caP; for IC (TGI): total growth inhibition (cytostatic effect), read-out: TGI LN-caP
Text: as §1, §2, §3, §4, §5

SK-BR-3 = experiment: SRB colorimetric cell growth inhibition assay, SK-BR-3; settings: Homo sapiens, SK-BR-3, SK-BR-3; for GI50: GI=growth inhibition, read-out: GI50 SK-BR-3; for CC50: cell killing (cytotoxic effect), read-out: LC50 SK-BR-3; for IC (TGI): total growth inhibition (cytostatic effect), read-out: TGI SK-BR-3
Text: as §1, §2, §3, §4, §5

IGROV = experiment: SRB colorimetric cell growth inhibition assay, IGROV; settings: Homo sapiens, IGROV; for GI50: GI=growth inhibition, read-out: GI50 IGROV; for CC50: cell killing (cytotoxic effect), read-out: LC50 IGROV; for IC (TGI): total growth inhibition (cytostatic effect), read-out: TGI IGROV
Text: as §1, §2, §3, §4, §5

IGROV-ET = experiment: SRB colorimetric cell growth inhibition assay, IGROV-ET (ET-743 resistant); settings: Homo sapiens, IGROV-ET; for GI50: GI=growth inhibition, read-out: GI50 IGROV-ET; for CC50: cell killing (cytotoxic effect), read-out: LC50 IGROV-ET; for IC (TGI): total growth inhibition (cytostatic effect), read-out: TGI IGROV-ET
Text: as §1, §2, §3, §4, §5

HeLa = experiment: SRB colorimetric cell growth inhibition assay, HeLa; settings: Homo sapiens, HeLa; for GI50: GI=growth inhibition, read-out: GI50 HELA; for CC50: cell killing (cytotoxic effect), read-out: LC50 HELA; for IC (TGI): total growth inhibition (cytostatic effect), read-out: TGI HELA
Text: as §1, §2, §3, §4, §5

HeLa-APL = experiment: SRB colorimetric cell growth inhibition assay, HeLa-APL (aplidine resistant); settings: Homo sapiens, HELA-APL; for GI50: GI=growth inhibition, read-out: GI50 HELA-APL; for CC50: cell killing (cytotoxic effect), read-out: LC50 HELA-APL; for IC (TGI): total growth inhibition (cytostatic effect), read-out: TGI HELA-APL
Text: as §1, §2, §3, §4, §5

PANC-1 = experiment: SRB colorimetric cell growth inhibition assay, PANC-1; settings: Homo sapiens, PANC-1, PANC-1; for GI50: GI=growth inhibition, read-out: GI50 PANC-1; for CC50: cell killing (cytotoxic effect), read-out: LC50 PANC-1; for IC (TGI): total growth inhibition (cytostatic effect), read-out: TGI PANC-1
Text: as §1, §2, §3, §4, §5

SK-MEL-28 = experiment: SRB colorimetric cell growth inhibition assay, SK-MEL-28; settings: Homo sapiens, SK-MEL-28, MEL-28; for GI50: GI=growth inhibition, read-out: GI50 MEL-28; for CC50: cell killing (cytotoxic effect), read-out: LC50 MEL-28; for IC (TGI): total growth inhibition (cytostatic effect), read-out: TGI MEL-28
Text: as §1, §2, §3, §4, §5

COc1cc(-c2c3n(c4c(=O)[nH]c5cc(O)c(OC)cc5c24)CCc2cc(O)c(OC)cc2-3)ccc1O [Compound 4]
GI50 (K-562): 396 nM
CC50 (K-562): 4440 nM
IC (TGI) (K-562): 937 nM
GI50 (A-549): 543 nM
CC50 (A-549): 10000 nM
IC (TGI) (A-549): 1210 nM
GI50 (HT-29): 2500 nM
CC50 (HT-29): 14600 nM
IC (TGI) (HT-29): 6030 nM
GI50 (LoVo): 468 nM
CC50 (LoVo): 4360 nM
IC (TGI) (LoVo): 1080 nM
GI50 (LoVo-Dox): 2000 nM
CC50 (LoVo-Dox): 17800 nM
IC (TGI) (LoVo-Dox): 5950 nM
GI50 (DU-145): 218 nM
CC50 (DU-145): 2140 nM
IC (TGI) (DU-145): 667 nM
GI50 (LNCaP): 332 nM
CC50 (LNCaP): 1850 nM
IC (TGI) (LNCaP): 785 nM
GI50 (SK-BR-3): 338 nM
CC50 (SK-BR-3): 1470 nM
IC (TGI) (SK-BR-3): 703 nM
GI50 (IGROV): 402 nM
CC50 (IGROV): 11300 nM
IC (TGI) (IGROV): 2000 nM
GI50 (IGROV-ET): 599 nM
CC50 (IGROV-ET): 13100 nM
IC (TGI) (IGROV-ET): 1640 nM
GI50 (HeLa): 338 nM
CC50 (HeLa): 1390 nM
IC (TGI) (HeLa): 685 nM
GI50 (HeLa-APL): 238 nM
CC50 (HeLa-APL): 1950 nM
IC (TGI) (HeLa-APL): 681 nM
GI50 (PANC-1): 480 nM
CC50 (PANC-1): 5990 nM
IC (TGI) (PANC-1): 1340 nM

CC[C@H](C)[C@H](N)C(=O)Oc1ccc(-c2c3c4cc(OC)c(OC(=O)[C@@H](N)[C@@H](C)CC)cc4oc(=O)c3n3ccc4cc(OC(=O)[C@@H](N)[C@@H](C)CC)c(OC)cc4c23)cc1OC [Compound 209]
GI50 (A-549): 42.8 nM
CC50 (A-549): 713 nM
IC (TGI) (A-549): 195 nM
GI50 (SK-MEL-28): 32.8 nM
CC50 (SK-MEL-28): 480 nM
IC (TGI) (SK-MEL-28): 83.9 nM
GI50 (HT-29): 3380 nM
CC50 (HT-29): 10500 nM
IC (TGI) (HT-29): 9990 nM
GI50 (LoVo): 119 nM
CC50 (LoVo): 527 nM
IC (TGI) (LoVo): 251 nM
GI50 (LoVo-Dox): 137 nM
CC50 (LoVo-Dox): 2600 nM
IC (TGI) (LoVo-Dox): 488 nM
GI50 (DU-145): 4.29 nM
CC50 (DU-145): 40.4 nM
IC (TGI) (DU-145): 11.9 nM
GI50 (LNCaP): 15.8 nM
CC50 (LNCaP): 233 nM
IC (TGI) (LNCaP): 56 nM
GI50 (SK-BR-3): 47.8 nM
CC50 (SK-BR-3): 101 nM
IC (TGI) (SK-BR-3): 69.5 nM
GI50 (IGROV): 33.7 nM
CC50 (IGROV): 477 nM
IC (TGI) (IGROV): 124 nM
GI50 (IGROV-ET): 31.7 nM
CC50 (IGROV-ET): 345 nM
IC (TGI) (IGROV-ET): 70.1 nM
GI50 (HeLa): 66.2 nM
CC50 (HeLa): 1010 nM
IC (TGI) (HeLa): 269 nM
GI50 (HeLa-APL): 82.7 nM
CC50 (HeLa-APL): 517 nM
IC (TGI) (HeLa-APL): 221 nM
GI50 (PANC-1): 67.4 nM
CC50 (PANC-1): 1030 nM
IC (TGI) (PANC-1): 282 nM

COc1cc2c(cc1O)oc(=O)c1c2c(-c2ccc(OC)c(OC)c2)c2c3cc(OC)c(O)cc3ccn21 [Compound 233]
GI50 (K-562): 95.8 nM
CC50 (K-562): 8610 nM
IC (TGI) (K-562): 1090 nM
GI50 (A-549): 312 nM
CC50 (A-549): 19500 nM
IC (TGI) (A-549): 2060 nM
GI50 (SK-MEL-28): 169 nM
CC50 (SK-MEL-28): 19500 nM
IC (TGI) (SK-MEL-28): 4750 nM
GI50 (HT-29): 19500 nM
CC50 (HT-29): 19500 nM
IC (TGI) (HT-29): 19500 nM
GI50 (LoVo): 545 nM
CC50 (LoVo): 19500 nM
IC (TGI) (LoVo): 1310 nM
GI50 (LoVo-Dox): 1050 nM
CC50 (LoVo-Dox): 19500 nM
IC (TGI) (LoVo-Dox): 15400 nM
GI50 (DU-145): 78.3 nM
CC50 (DU-145): 19500 nM
IC (TGI) (DU-145): 180 nM
GI50 (LNCaP): 126 nM
CC50 (LNCaP): 3720 nM
IC (TGI) (LNCaP): 557 nM
GI50 (IGROV): 49.9 nM
CC50 (IGROV): 19500 nM
IC (TGI) (IGROV): 142 nM
GI50 (IGROV-ET): 107 nM
CC50 (IGROV-ET): 19500 nM
IC (TGI) (IGROV-ET): 721 nM
GI50 (HeLa): 191 nM
CC50 (HeLa): 16000 nM
IC (TGI) (HeLa): 3820 nM
GI50 (HeLa-APL): 417 nM
CC50 (HeLa-APL): 14300 nM
IC (TGI) (HeLa-APL): 3150 nM
GI50 (PANC-1): 341 nM
CC50 (PANC-1): 19500 nM
IC (TGI) (PANC-1): 19500 nM
